Laboratory results: patent publication US20220169639A1 (priority 2018, published 2022)

System: HBeAg (surrogate marker for cccDNA) in HepDES19 cells
Experiment: Engineered HepDES19 primary screen assay (HBeAg ELISA)
Format: cell-based, HBV
Details: Hepatitis B virus, 120 h, HBeAg in culture supernatant, 5 days incubation, read-out: IC50 (HepDES19 primary screen assay, inhibition of extracellular HBeAg level)
Source text: The assay was employed to screen for cccDNA inhibitors. HepDES19 is a cccDNA-producing cell line. In this cell line, HBeAg in the cell culture supernatant as surrogate marker, as HBeAg production depends on cccDNA level and activity. HepDES19 is an engineered cell line which contains a 1.1 unit length HBV genome, and pgRNA transcription from the transgene is controlled by Tetracycline (Tet). In the absence of Tet, pgRNA transcription will be induced, but HBV e antigen (HBeAg) could not be produced from this pgRNA due to very short leader sequence before the HBeAg start codon and the start codon is disrupted. Only after cccDNA is formed, the missing leader sequence and start codon mutation would be restored from the 3′-terminal redundancy of pgRNA, and then HBeAg could be synthesized. Therefore, HBeAg could be used as a surrogate marker for cccDNA (Zhou, T. et al., Antiviral Res. (2006), 72(2), 116-124; Guo, H. et al., J. Virol. (2007), 81(22), 12472-12484).
HepDES19 cells were seeded at 2×10^6 cells per T150 flask and cultured with the culture medium (Dulbecco's Modified Eagle Medium: Nutrient Mixture F-12 [DMEM-F12, Gibco Cat. 11320-82], 10% Fetal Bovine Serum [FBS, Clontech Cat. 631101], 0.1 mM Non-Essential Amino Acids Solution [NEAA, Gibco Cat. 11140-050], 50 μg/mL Penicillin-Streptomycin [PS, Invitrogen Cat. 15140-163], 500 μg/mL Geneticin [G418, Invitrogen Cat. 10131-027]) containing 3 μg/mL Tet (Sigma, Cat. 87128) for 5 days. Cells were then seeded at 4×10^6 cells per T150 in the same culture medium as described above in the absence of Tet for 8 days. Cells were then harvested and frozen at density of 2×10^6 cells per mL. For compound testing, the frozen cells were thawed and seeded into 96-well plates at a density of 6×10^4 cells per well. At 24 hours after seeding, half log serial dilutions of compounds made with Dimethyl sulfoxide (DMSO, Sigma, Cat. D2650) were further diluted with the same culture medium as described above before they were added to the cells to reach desired final compound concentrations and 1% DMSO concentration. Plates were then incubated at 37° C. for another 5 days before measurement of HBeAg level and cell viability. Intracellular HBeAg level were measured with enzyme-linked immunosorbent assay (ELISA) kit (Shanghai Kehua Diagnostic Medical Products Co., Ltd). Cell viability was assessed using Cell Counting Kit-8 (DonJindo, Cat. CK04-20). IC50 values were derived from the dose-response curve using 4 parameter logistic curve fit method.
The compounds of the present invention were tested for their capacity to inhibit extracellular HBeAg level as described herein.

Going from `CCOC(=O)C(=O)NCCCOc1cc(C(F)(F)F)ccc1-c1cc(=O)c2cccc(Cl)c2o1` [Example 100, ethyl 2-[3-[2-(8-chloro-4-oxo-chromen-2-yl)-5-(trifluoromethyl)phenoxy]propylamino]-2-oxo-acetate] to `CCC(=O)NCCCOc1cc(C(F)(F)F)ccc1-c1cc(=O)c2cccc(Cl)c2o1` [Example 099], the IC50 rises from 3840 nM to 6470 nM (1.7-fold). The first is the more potent here.

Going from `O=C(O)[C@@H]1C[C@H](NCCCOc2cc(Br)ccc2-c2cc(=O)c3cccc(Cl)c3o2)CCO1` (relative stereo) [Example 060, cis-4-[3-[5-bromo-2-(8-chloro-4-oxo-chromen-2-yl)phenoxy]propylamino]tetrahydropyran-2-carboxylic acid] to `O=c1cc(-c2ccc(Br)cc2OCCN[C@H]2CC[C@@H](C(=O)O)CC2)oc2c(Cl)cccc12` [Example 055, cis-4-[2-[5-bromo-2-(8-chloro-4-oxo-chromen-2-yl)phenoxy]ethylamino]cyclohexanecarboxylic acid], the IC50 falls from 4870 nM to 980 nM (5-fold). The second is the more potent here.

First: CC(C)[C@@H]1NC(=O)N(CCOc2cc(C(F)(F)F)ccc2-c2cc(=O)c3cccc(Cl)c3o2)C1=O [Example 153]
Second: Cc1ccc(-c2cc(=O)c3cccc(Cl)c3o2)c(OCCN2C(=O)N[C@@H](C(C)C)C2=O)c1 [Example 152]
The IC50 of the first is 1.7-fold higher: 830 nM for the first, 480 nM for the second. The second is the more potent here.

Going from `O=C(O)C1CCN(CCOc2ccccc2-c2cc(=O)c3cccc(Cl)c3o2)C1` (centres unmarked) [Example 031, 1-[2-[2-(8-chloro-4-oxo-chromen-2-yl)phenoxy]ethyl]pyrrolidine-3-carboxylic acid] to `O=C(O)C1CN(CCOc2ccccc2-c2cc(=O)c3cccc(Cl)c3o2)C1` [Example 033, 1-[2-[2-(8-chloro-4-oxo-chromen-2-yl)phenoxy]ethyl]azetidine-3-carboxylic acid], the IC50 rises from 170 nM to 1090 nM (6.4-fold).

First: O=c1cc(-c2ccc(Br)cc2OC2CCN(S(=O)(=O)C3CC3)CC2)oc2c(Cl)cccc12 [Example 108]
Second: COC(=O)NCCOc1cc(Br)ccc1-c1cc(=O)c2cccc(Cl)c2o1 [Example 105]
The IC50 of the first is 1.7-fold lower: 1140 nM for the first, 1900 nM for the second. The first is the more potent here.

`COc1cc(OCCOCCN2CC[C@H](C(=O)O)C2)c(-c2cc(=O)c3cccc(Cl)c3o2)cc1C` [Example 051, (3S)-1-[2-[2-[2-(8-chloro-4-oxo-chromen-2-yl)-5-methoxy-4-methyl-phenoxy]ethoxy]ethyl]pyrrolidine-3-carboxylic acid] and `COc1cc(OCCOCCN2CC[C@@H](C(=O)O)C2)c(-c2cc(=O)c3cccc(Cl)c3o2)cc1C` [Example 050, (3R)-1-[2-[2-[2-(8-chloro-4-oxo-chromen-2-yl)-5-methoxy-4-methyl-phenoxy]ethoxy]ethyl]pyrrolidine-3-carboxylic acid] are within 1.5-fold of each other in IC50: 7860 nM for the first, 6930 nM for the second.

`CC(NCCOc1cc(C(F)(F)F)ccc1-c1cc(=O)c2cccc(Cl)c2o1)C(N)=O` (centres unmarked) [Example 168, 2-[2-[2-(8-chloro-4-oxo-chromen-2-yl)-5-(trifluoromethyl)phenoxy]ethylamino]propanamide] and `CC(NCCOc1cc(C(F)(F)F)ccc1-c1cc(=O)c2cccc(Cl)c2o1)C(=O)O` (centres unmarked) [Example 057, 2-[2-[2-(8-chloro-4-oxo-chromen-2-yl)-5-(trifluoromethyl)phenoxy]ethylamino]propanoic acid] are within 1.5-fold of each other in IC50: 1140 nM for the first, 1500 nM for the second.

`CCOC(=O)C(=O)N(C)CCOc1cc(C)ccc1-c1cc(=O)c2cccc(Cl)c2o1` [Example 137, ethyl 2-[2-[2-(8-chloro-4-oxo-chromen-2-yl)-5-methyl-phenoxy]ethyl-methyl-amino]-2-oxo-acetate] and `CCOC(=O)C(=O)NCCOc1cc(C)ccc1-c1cc(=O)c2cccc(Cl)c2o1` [Example 109, ethyl 2-[2-[2-(8-chloro-4-oxo-chromen-2-yl)-5-methyl-phenoxy]ethylamino]-2-oxo-acetate] are within 1.5-fold of each other in IC50: 3400 nM for the first, 4110 nM for the second.

First: CS(=O)(=O)NC(=O)[C@@H]1CCN(CCOc2cc(C(F)(F)F)ccc2-c2cc(=O)c3cccc(Cl)c3o2)C1 [Example 070, (3R)-1-[2-[2-(8-chloro-4-oxo-chromen-2-yl)-5-(trifluoromethyl)phenoxy]ethyl]-N-methylsulfonyl-pyrrolidine-3-carboxamide]
Second: CS(=O)(=O)NC(=O)C1CN(CCOc2cc(C(F)(F)F)ccc2-c2cc(=O)c3cccc(Cl)c3o2)CCO1 (centres unmarked) [Example 068, 4-[2-[2-(8-chloro-4-oxo-chromen-2-yl)-5-(trifluoromethyl)phenoxy]ethyl]-N-methylsulfonyl-morpholine-2-carboxamide]
The IC50 of the first is 5.5-fold lower: 1010 nM for the first, 5510 nM for the second.

Going from `O=C(O)C(=O)NCC1(COc2cc(C(F)(F)F)ccc2-c2cc(=O)c3cccc(Cl)c3o2)COC1` [Example 010, 2-[[3-[[2-(8-chloro-4-oxo-chromen-2-yl)-5-(trifluoromethyl)phenoxy]methyl]oxetan-3-yl]methylamino]-2-oxo-acetic acid] to `O=C(NCCOc1cc(C(F)(F)F)ccc1-c1cc(=O)c2cccc(Cl)c2o1)C(=O)NC1CC1` [Example 148, N-[2-[2-(8-chloro-4-oxo-chromen-2-yl)-5-(trifluoromethyl)phenoxy]ethyl]-N′-cyclopropyl-oxamide], the IC50 rises from 220 nM to 1210 nM (5.5-fold).

First: CCOC(=O)C(=O)NCCOc1cc(OC)ccc1-c1cc(=O)c2cccc(Cl)c2o1 [Example 104]
Second: CC(CC(=O)O)NCCCOc1cc(C(F)(F)F)ccc1-c1cc(=O)c2cccc(Cl)c2o1 (centres unmarked) [Example 062, 3-[3-[2-(8-chloro-4-oxo-chromen-2-yl)-5-(trifluoromethyl)phenoxy]propylamino]butanoic acid]
The IC50 of the first is 4.8-fold higher: 9650 nM for the first, 2020 nM for the second. The second is the more potent here.

Going from `Cc1ccc(S(=O)(=O)NC(=O)NCCCOc2cc(C)ccc2-c2cc(=O)c3cccc(Cl)c3o2)cc1` [Example 156, 1-[3-[2-(8-chloro-4-oxo-chromen-2-yl)-5-methyl-phenoxy]propyl]-3-(p-tolylsulfonyl)urea] to `Cc1ccc(S(=O)(=O)NC(=O)NCCOc2cc(C(F)(F)F)ccc2-c2cc(=O)c3cccc(Cl)c3o2)cc1` [Example 158, 1-[2-[2-(8-chloro-4-oxo-chromen-2-yl)-5-(trifluoromethyl)phenoxy]ethyl]-3-(p-tolylsulfonyl)urea], the IC50 rises from 4140 nM to 8350 nM (2-fold).

Compared with `CS(=O)(=O)N1CCN(CCCOc2cc(C(F)(F)F)ccc2-c2cc(=O)c3cccc(Cl)c3o2)CC1` [Example 081, 8-chloro-2-[2-[3-(4-methylsulfonylpiperazin-1-yl)propoxy]-4-(trifluoromethyl)phenyl]chromen-4-one], `O=C(O)C1CCN(CCCOc2cc(C(F)(F)F)ccc2-c2cc(=O)c3cccc(Cl)c3o2)C1` (centres unmarked) [Example 012, 1-[3-[2-(8-chloro-4-oxo-chromen-2-yl)-5-(trifluoromethyl)phenoxy]propyl]pyrrolidine-3-carboxylic acid] is 65-fold lower in IC50: 7110 nM for the first, 110 nM for the second.

First: O=C(O)CC1CCN(CCCOc2cc(C(F)(F)F)ccc2-c2cc(=O)c3cccc(Cl)c3o2)C1 (centres unmarked) [Example 008, 2-[1-[3-[2-(8-chloro-4-oxo-chromen-2-yl)-5-(trifluoromethyl)phenoxy]propyl]pyrrolidin-3-yl]acetic acid]
Second: O=C(O)CN(CCCOc1cc(C(F)(F)F)ccc1-c1cc(=O)c2cccc(Cl)c2o1)S(=O)(=O)C1CC1 [Example 145]
The IC50 of the first is 84-fold lower: 170 nM for the first, 14300 nM for the second.

Work on `O=c1cc(-c2ccc(C(F)(F)F)cc2OCCCNC2CCS(=O)(=O)CC2)oc2c(Cl)cccc12` [Example 078, 8-chloro-2-[2-[3-[(1,1-dioxothian-4-yl)amino]propoxy]-4-(trifluoromethyl)phenyl]chromen-4-one] yielded an IC50 of 7800 nM.
